# Measured values: PMC11571108, “Targeting PfCLK3 with Covalent Inhibitors: A Novel Strategy for Malaria Treatment” (Journal of Medicinal Chemistry, 2024)
# Key:
# Test in all cases: biochemical
# CaMKI(h) = CaMKI(h) (Homo sapiens, UniProt Q14012)
# PAK2(h) = PAK2(h) (Homo sapiens, UniProt Q13177)
# Protocol: (§1) Compounds were evaluated using Eurofins Discovery’s KinaseProfiler Diversity Panel of 58 representative kinases. KinaseProfiler is a radiometric assay using [γ-^33P]-ATP to measure the phosphorylation of individual kinase substrates. A representative protocol for Abl is given below. Further details can be found by visiting the Eurofins Discovery Web site.
# (§2) The reaction is initiated by the addition of the Mg/ATP mix. After incubation for 40 min at room temperature, the reaction is stopped by the addition of phosphoric acid to a concentration of 0.5%.
# Rsk1(h) = Rsk1(h) (Homo sapiens, UniProt Q15418)
# Protocol: as §1, §2
# mTOR(h) = mTOR(h) (Homo sapiens, UniProt P42345)
# Protocol: as §1, §2
# EphB4(h) = EphB4(h) (Homo sapiens, UniProt P54760)
# Protocol: as §1, §2
# SAPK2a(h) = SAPK2a(h) (Homo sapiens, UniProt Q16539)
# Chain of SAPK2a(h) (Q16539 whole entry): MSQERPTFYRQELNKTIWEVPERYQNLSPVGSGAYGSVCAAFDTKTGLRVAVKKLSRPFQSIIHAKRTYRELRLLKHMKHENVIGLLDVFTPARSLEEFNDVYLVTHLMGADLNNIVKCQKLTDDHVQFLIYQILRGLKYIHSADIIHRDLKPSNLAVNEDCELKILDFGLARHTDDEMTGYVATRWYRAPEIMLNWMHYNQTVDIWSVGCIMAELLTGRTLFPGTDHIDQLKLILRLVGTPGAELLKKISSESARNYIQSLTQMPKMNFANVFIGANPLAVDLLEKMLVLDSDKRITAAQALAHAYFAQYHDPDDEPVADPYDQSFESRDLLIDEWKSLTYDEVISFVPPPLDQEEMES
# Protocol: as §1, §2
# PKCα(h) = PKCα(h) (Homo sapiens, UniProt P17252)
# Protocol: as §1, §2
# PRAK(h) = PRAK(h) (Homo sapiens, UniProt Q8IW41)
# Chain of PRAK(h) (Q8IW41 whole entry): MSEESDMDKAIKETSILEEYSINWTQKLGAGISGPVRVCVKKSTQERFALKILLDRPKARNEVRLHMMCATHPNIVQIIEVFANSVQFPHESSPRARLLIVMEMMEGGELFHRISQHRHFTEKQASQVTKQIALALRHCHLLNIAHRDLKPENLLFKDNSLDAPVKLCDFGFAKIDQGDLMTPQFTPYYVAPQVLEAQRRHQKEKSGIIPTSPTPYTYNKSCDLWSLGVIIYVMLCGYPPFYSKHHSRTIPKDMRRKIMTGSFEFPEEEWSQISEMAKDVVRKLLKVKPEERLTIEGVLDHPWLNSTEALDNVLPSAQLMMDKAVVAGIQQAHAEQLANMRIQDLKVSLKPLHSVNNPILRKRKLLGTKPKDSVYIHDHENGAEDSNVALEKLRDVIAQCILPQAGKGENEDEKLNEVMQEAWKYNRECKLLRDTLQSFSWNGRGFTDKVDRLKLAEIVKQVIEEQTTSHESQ
# Protocol: as §1, §2
# Rse(h) = Rse(h) (Homo sapiens, UniProt Q06418)
# Protocol: as §1, §2
# PKG1α(h) = PKG1α(h) (Homo sapiens, UniProt Q13976)
# Protocol: as §1, §2
# MSK2(h) = MSK2(h) (Homo sapiens, UniProt O75676)
# Protocol: as §1, §2
# SRPK1(h) = SRPK1(h) (Homo sapiens, UniProt Q96SB4)
# Chain of SRPK1(h) (Q96SB4 whole entry): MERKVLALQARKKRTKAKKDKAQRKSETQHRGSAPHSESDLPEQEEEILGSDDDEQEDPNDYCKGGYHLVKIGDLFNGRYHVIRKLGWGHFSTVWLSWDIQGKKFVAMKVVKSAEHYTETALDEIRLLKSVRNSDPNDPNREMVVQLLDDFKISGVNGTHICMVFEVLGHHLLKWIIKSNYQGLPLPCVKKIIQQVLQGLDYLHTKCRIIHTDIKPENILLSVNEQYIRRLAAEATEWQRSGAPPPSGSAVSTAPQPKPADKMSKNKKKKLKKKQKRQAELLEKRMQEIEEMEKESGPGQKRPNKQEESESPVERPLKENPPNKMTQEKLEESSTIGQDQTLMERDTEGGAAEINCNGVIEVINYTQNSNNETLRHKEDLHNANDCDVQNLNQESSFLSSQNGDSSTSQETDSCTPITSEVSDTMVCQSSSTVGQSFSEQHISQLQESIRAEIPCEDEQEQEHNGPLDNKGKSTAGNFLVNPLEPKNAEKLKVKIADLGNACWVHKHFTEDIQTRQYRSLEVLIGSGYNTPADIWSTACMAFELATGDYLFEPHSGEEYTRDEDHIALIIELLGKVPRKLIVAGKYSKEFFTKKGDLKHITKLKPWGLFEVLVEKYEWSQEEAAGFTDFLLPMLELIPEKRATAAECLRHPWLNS
# Protocol: as §1, §2
# Mnk2(h) = Mnk2(h) (Homo sapiens, UniProt Q9HBH9)
# Chain of Mnk2(h) (Q9HBH9 whole entry): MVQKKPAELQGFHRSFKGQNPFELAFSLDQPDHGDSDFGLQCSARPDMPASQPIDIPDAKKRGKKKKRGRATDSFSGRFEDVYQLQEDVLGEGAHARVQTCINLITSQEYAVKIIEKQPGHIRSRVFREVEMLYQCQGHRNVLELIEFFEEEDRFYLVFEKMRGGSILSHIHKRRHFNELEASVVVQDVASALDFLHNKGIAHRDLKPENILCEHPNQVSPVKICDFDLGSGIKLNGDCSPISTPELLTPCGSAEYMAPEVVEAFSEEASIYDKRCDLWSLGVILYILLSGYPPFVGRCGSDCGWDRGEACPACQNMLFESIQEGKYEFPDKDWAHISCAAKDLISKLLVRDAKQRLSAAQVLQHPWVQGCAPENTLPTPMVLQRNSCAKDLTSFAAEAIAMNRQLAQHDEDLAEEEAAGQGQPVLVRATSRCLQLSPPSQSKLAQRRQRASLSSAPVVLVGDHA
# Protocol: as §1, §2
# EGFR(h) = EGFR(h) (Homo sapiens, UniProt P00533)
# Protocol: as §1, §2
# LOK(h) = LOK(h) (Homo sapiens, UniProt O94804)
# Protocol: as §1, §2
# IGF-1R(h) = IGF-1R(h) (Homo sapiens, UniProt P08069)
# Protocol: as §1, §2
# MLK1(h) = MLK1(h) (Homo sapiens, UniProt P80192)
# Protocol: as §1, §2
# Fyn(h) = Fyn(h) (Homo sapiens, UniProt P06241)
# Protocol: as §1, §2
# p70S6K(h) = p70S6K(h) (Homo sapiens, UniProt P23443)
# Chain of p70S6K(h) (P23443 whole entry): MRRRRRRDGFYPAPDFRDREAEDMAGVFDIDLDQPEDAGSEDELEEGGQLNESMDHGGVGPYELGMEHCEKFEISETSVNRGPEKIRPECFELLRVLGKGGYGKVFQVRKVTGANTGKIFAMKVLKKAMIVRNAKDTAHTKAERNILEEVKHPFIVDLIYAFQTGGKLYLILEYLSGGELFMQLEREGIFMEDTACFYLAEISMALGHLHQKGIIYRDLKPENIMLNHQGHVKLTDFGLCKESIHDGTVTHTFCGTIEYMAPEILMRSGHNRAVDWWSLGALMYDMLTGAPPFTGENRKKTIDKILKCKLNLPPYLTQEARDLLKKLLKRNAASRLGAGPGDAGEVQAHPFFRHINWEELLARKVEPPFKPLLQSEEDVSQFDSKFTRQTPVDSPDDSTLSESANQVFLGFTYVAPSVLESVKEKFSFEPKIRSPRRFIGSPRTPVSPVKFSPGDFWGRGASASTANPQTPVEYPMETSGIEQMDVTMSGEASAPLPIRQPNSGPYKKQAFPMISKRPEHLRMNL
# Protocol: as §1, §2
# JAK2(h) = JAK2(h) (Homo sapiens, UniProt O60674)
# Protocol: as §1, §2
# KDR(h) = KDR(h) (Homo sapiens, UniProt P35968)
# Protocol: as §1, §2
# IKKα(h) = IKKα(h) (Homo sapiens, UniProt O15111)
# Protocol: as §1, §2
# eEF-2K(h) = eEF-2K(h) (Homo sapiens, UniProt O00418)
# Protocol: as §1, §2
# PKA(h) = PKA(h) (Homo sapiens, UniProt P17612)
# Protocol: as §1, §2
# PKCθ(h) = PKCθ(h) (Homo sapiens, UniProt Q04759)
# Protocol: as §1, §2
# IRAK4(h) = IRAK4(h) (Homo sapiens, UniProt Q9NWZ3)
# Protocol: as §1, §2
# NEK2(h) = NEK2(h) (Homo sapiens, UniProt P51955)
# Chain of NEK2(h) (P51955 whole entry): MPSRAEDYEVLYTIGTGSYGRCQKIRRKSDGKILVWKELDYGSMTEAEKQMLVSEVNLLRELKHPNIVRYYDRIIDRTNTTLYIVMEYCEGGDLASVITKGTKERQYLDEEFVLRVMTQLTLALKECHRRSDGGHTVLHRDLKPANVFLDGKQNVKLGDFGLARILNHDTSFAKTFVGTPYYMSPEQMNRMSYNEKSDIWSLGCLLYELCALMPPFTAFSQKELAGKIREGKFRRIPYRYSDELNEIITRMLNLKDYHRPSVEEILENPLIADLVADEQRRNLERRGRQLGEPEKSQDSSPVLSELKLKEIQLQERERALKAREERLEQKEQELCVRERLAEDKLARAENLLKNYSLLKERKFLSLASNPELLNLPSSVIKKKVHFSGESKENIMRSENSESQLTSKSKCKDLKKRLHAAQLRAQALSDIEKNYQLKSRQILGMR
# Protocol: as §1, §2
# TAK1(h) = TAK1(h) (Homo sapiens, UniProt O43318)
# Protocol: as §1, §2
# MEK1(h) = MEK1(h) (Homo sapiens, UniProt Q02750)
# Chain of MEK1(h) (Q02750 whole entry): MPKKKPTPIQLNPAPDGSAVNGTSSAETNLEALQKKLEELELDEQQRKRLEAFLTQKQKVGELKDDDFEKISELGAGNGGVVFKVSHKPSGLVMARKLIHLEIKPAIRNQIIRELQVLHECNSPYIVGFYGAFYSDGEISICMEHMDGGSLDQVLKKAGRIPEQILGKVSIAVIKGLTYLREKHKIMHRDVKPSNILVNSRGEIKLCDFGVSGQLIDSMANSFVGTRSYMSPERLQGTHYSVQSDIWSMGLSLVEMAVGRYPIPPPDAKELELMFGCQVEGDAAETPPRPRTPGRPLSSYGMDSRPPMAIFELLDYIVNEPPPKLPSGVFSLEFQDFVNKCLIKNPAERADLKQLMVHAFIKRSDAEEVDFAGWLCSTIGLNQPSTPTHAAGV
# Protocol: as §1, §2
# Pim-1(h) = Pim-1(h) (Homo sapiens, UniProt P11309)
# Protocol: as §1, §2
# Lyn(h) = Lyn(h) (Homo sapiens, UniProt P07948)
# Protocol: as §1, §2
# ROCK-I(h) = ROCK-I(h) (Homo sapiens, UniProt Q13464)
# Protocol: as §1, §2
# Plk3(h) = Plk3(h) (Homo sapiens, UniProt Q9H4B4)
# Protocol: as §1, §2
# MST1(h) = MST1(h) (Homo sapiens, UniProt Q13043)
# Protocol: as §1, §2
# EphA5(h) = EphA5(h) (Homo sapiens, UniProt P54756)
# Chain of EphA5(h) (P54756 25-1037): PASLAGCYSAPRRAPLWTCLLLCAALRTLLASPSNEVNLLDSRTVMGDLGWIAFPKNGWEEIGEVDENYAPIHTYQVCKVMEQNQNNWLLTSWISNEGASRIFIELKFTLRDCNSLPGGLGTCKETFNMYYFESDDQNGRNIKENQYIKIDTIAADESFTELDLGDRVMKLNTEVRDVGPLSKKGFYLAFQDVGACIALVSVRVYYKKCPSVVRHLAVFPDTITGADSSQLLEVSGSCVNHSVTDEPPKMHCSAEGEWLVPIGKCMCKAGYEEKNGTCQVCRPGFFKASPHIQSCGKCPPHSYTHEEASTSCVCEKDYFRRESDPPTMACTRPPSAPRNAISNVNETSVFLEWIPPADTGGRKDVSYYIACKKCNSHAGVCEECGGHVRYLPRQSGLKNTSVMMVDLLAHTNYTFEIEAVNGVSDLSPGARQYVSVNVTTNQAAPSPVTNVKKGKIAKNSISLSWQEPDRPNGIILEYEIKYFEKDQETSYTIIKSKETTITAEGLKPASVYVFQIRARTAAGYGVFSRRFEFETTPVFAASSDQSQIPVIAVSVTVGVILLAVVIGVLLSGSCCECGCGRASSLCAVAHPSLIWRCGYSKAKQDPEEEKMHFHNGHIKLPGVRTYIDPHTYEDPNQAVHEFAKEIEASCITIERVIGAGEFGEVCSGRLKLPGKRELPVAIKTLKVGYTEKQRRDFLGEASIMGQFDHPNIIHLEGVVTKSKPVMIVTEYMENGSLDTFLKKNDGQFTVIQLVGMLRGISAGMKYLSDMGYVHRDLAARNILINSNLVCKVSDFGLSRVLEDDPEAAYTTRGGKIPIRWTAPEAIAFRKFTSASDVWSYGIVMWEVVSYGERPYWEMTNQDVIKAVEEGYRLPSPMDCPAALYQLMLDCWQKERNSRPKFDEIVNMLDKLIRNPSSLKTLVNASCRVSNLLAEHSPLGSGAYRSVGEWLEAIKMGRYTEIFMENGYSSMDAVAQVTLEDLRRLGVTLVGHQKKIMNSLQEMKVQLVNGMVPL
# Protocol: as §1, §2
# MAPKAP-K2(h) = MAPKAP-K2(h) (Homo sapiens, UniProt P49137)
# Protocol: as §1, §2
# PKBα(h) = PKBα(h) (Homo sapiens, UniProt P31749)
# Protocol: as §1, §2
# PI3 Kinase (p120g)(h) = PI3 Kinase (p120g)(h) (Homo sapiens, UniProt P48736)
# Protocol: as §1, §2
# PDGFRβ(h) = PDGFRβ(h) (Homo sapiens, UniProt P09619)
# Protocol: as §1, §2
# Abl(h) = Abl(h) (Homo sapiens, UniProt P00519)
# ASK1(h) = ASK1(h) (Homo sapiens, UniProt Q99683)
# Aurora-A(h) = Aurora-A(h) (Homo sapiens, UniProt O14965)
# Chain of CaMKI(h) (Q14012 whole entry): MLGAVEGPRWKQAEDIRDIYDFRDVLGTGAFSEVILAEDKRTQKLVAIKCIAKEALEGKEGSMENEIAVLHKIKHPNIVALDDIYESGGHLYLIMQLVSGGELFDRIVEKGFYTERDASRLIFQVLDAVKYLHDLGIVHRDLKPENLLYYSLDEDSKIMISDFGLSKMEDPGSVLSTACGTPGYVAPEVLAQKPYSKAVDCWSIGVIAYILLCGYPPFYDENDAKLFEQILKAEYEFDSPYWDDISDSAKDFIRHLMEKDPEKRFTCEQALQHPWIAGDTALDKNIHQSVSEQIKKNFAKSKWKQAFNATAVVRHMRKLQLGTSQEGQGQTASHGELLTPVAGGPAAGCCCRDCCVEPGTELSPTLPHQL
structure (smiles),measurement,setting,value
"CCN(CC)Cc1ccc(OC)c(-c2cc3c(-c4ccc(C(=O)O)c(C(C)C)c4)ccnc3[nH]2)c1 [Compound 1, TCMDC-135051]",remaining activity at 1 µM,CaMKI(h),100%
same,remaining activity at 1 µM,PAK2(h),110%
same,remaining activity at 1 µM,Rsk1(h),105%
same,remaining activity at 1 µM,mTOR(h),100%
same,remaining activity at 1 µM,EphB4(h),104%
same,remaining activity at 1 µM,SAPK2a(h),105%
same,remaining activity at 1 µM,PKCα(h),73%
same,remaining activity at 1 µM,PRAK(h),74%
same,remaining activity at 1 µM,Rse(h),109%
same,remaining activity at 1 µM,PKG1α(h),105%
same,remaining activity at 1 µM,MSK2(h),100%
same,remaining activity at 1 µM,SRPK1(h),105%
same,remaining activity at 1 µM,Mnk2(h),38%
same,remaining activity at 1 µM,EGFR(h),95%
same,remaining activity at 1 µM,LOK(h),37%
same,remaining activity at 1 µM,IGF-1R(h),94%
same,remaining activity at 1 µM,MLK1(h),92%
same,remaining activity at 1 µM,Fyn(h),49%
same,remaining activity at 1 µM,p70S6K(h),100%
same,remaining activity at 1 µM,JAK2(h),20%
same,remaining activity at 1 µM,KDR(h),61%
same,remaining activity at 1 µM,IKKα(h),93%
same,remaining activity at 1 µM,eEF-2K(h),100%
same,remaining activity at 1 µM,PKA(h),101%
same,remaining activity at 1 µM,PKCθ(h),108%
same,remaining activity at 1 µM,IRAK4(h),27%
same,remaining activity at 1 µM,NEK2(h),105%
same,remaining activity at 1 µM,TAK1(h),45%
same,remaining activity at 1 µM,MEK1(h),100%
same,remaining activity at 1 µM,Pim-1(h),101%
same,remaining activity at 1 µM,Lyn(h),28%
same,remaining activity at 1 µM,ROCK-I(h),117%
same,remaining activity at 1 µM,Plk3(h),100%
same,remaining activity at 1 µM,MST1(h),84%
same,remaining activity at 1 µM,EphA5(h),97%
same,remaining activity at 1 µM,MAPKAP-K2(h),94%
same,remaining activity at 1 µM,PKBα(h),106%
same,remaining activity at 1 µM,PI3 Kinase (p120g)(h),96%
same,remaining activity at 1 µM,PDGFRβ(h),94%
same,remaining activity at 1 µM,Abl(h),68%
same,remaining activity at 1 µM,ASK1(h),92%
same,remaining activity at 1 µM,Aurora-A(h),11%
